Reference: patent US20230028441A1, “NOVEL HETEROARYL-TRIAZOLE COMPOUNDS AS PESTICIDES” (Bayer Aktiengesellschaft, priority 2019, published 2023)

Assays:
Format in all cases: in vivo
[1] = test system: larvae of the southern green stink bug (Nezara viridula); assay: Nezara viridula spray test; conditions: in Hordeum vulgare, 96 h
In short: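 Percent mortality of southern green stink bug larvae read 4 days after spraying infested Hordeum vulgare. Test solutions: compound in acetone plus dimethylformamide, diluted with emulsifier-containing water (1000 ppm alkylarylpolyglycol ether).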

[2] = test system: larvae of the banded cucumber beetle (Diabrotica balteata); assay: Diabrotica balteata spray test; conditions: 168 h, after 7 days, wheat seeds, read-out: efficacy (seedlings grown up); for pest or weed control at 32 µg/disc, 100 g/ha: 100 g/ha (=32 μg/well)
In short: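 Efficacy (%) read at day 7: 100% means seedlings grew like untreated, uninfested controls; 0% means no seedlings grew. Wheat seeds germinated 1 day on agar, sprayed with emulsified compound solution (1000 ppm emulsifier in water), then each well infested with 10-20 larvae.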

[3] = test system: adult cat fleas (Ctenocephalides felis); assay: Ctenocephalides felis in-vitro contact test, adult cat flea; conditions: 5 μg/cm^2 (=500 g/ha), after 48 hours, read-out: efficacy (fleas dead or moribund)
In short: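 Efficacy (%) counts fleas that are dead or moribund, meaning unable to escape heat (45-50 °C, ≤5 min) by climbing. Scoring was done 48 h after 5-10 adults were placed at room temperature in glass tubes. The tubes carried a dried acetone film of compound, 5 μg/cm^2 at 900 ppm.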

[4] = test system: caterpillars of the fall army worm (Spodoptera frugiperda); assay: Spodoptera frugiperda spray test (cotton leaves); conditions: 168 h
Protocol: Solvent: 14 parts by weight of dimethylformamide
Emulsifier: alkylaryl polyglycol ether
(§1) To produce a suitable preparation of active compound, 1 part by weight of active compound is mixed with the stated amount of solvent and is diluted with water, containing an emulsifier concentration of 1000 ppm, to the desired concentration. Further test concentrations are prepared by dilution with emulsifier containing water. Ammonium salt and/or penetration enhancer in a dosage of 1000 ppm are added to the desired concentration if necessary.
Cotton leaves (Gossypium hirsutum) are treated by being sprayed with the preparation of the active compound of the desired concentration and are infested with caterpillars of the fall army worm (Spodoptera frugiperda).
After 7 days mortality in % is determined. 100% means all the caterpillars have been killed and 0% means none of the caterpillars have been killed.

[5] = test system: fall armyworm larvae (Spodoptera frugiperda); assay: Spodoptera frugiperda spray test (maize leaf sections); conditions: 168 h
In short: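 Percent kill of Spodoptera frugiperda larvae was recorded 7 days after infesting dried, treated maize leaf sections. Spray solutions were made from an acetone/DMF compound preparation diluted with 1000 ppm emulsifier-containing water.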

[6] = test system: green peach aphid (Myzus persicae); assay: Myzus persicae oral test; conditions: 120 h
In short: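 Five-day oral feeding assay measuring percent mortality of a mixed aphid population that draws compound-containing sugared IPL41 medium through sealing parafilm; the test preparation derives from 1 part compound per 100 parts acetone, diluted with water.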

[7] = test system: green peach aphid (Myzus persicae); assay: Myzus persicae spray test; conditions: foliar, 120 h, 100 g/ha, after 5 days, Chinese cabbage leaf disks
Protocol: Solvent: 78.0 parts by weight acetone • 1.5 parts by weight dimethylformamide
Emulsifier: alkylarylpolyglycol ether
as §1, with “solvents” for “solvent”, “water.” for “water. Ammonium salt and/or penetration enhancer in a dosage of 1000 ppm are added to the desired concentration if necessary.”
Chinese cabbage (Brassica pekinensis) leaf disks infected with all instars of the green peach aphid (Myzus persicae), are sprayed with a preparation of the active ingredient of the desired concentration.
After 5 days mortality in % is determined. 100% means all aphids have been killed and 0% means none of the aphids have been killed.

[8] = test system: cattle tick larvae (Rhipicephalus microplus), strain Parkhurst, resistant against synthetic pyrethroids; assay: Rhipicephalus (Boophilus) microplus in-vitro contact test, larval cattle tick; conditions: 5 μg/cm^2 (=500 g/ha), after 48 hours, read-out: efficacy (larvae dead or moribund)
In short: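 Efficacy, 100% meaning all larvae dead or moribund, was judged at 48 h from loss of negative geotactic climbing. Larvae of the Parkhurst strain, 20–50 per tube, were exposed at 27° C and 85% humidity to acetone-coated tube surfaces; 900 ppm corresponded to 5 μg/cm^2.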

[9] = test system: adult engorged female ticks (Rhipicephalus microplus); assay: Rhipicephalus (Boophilus) microplus injection test; conditions: 168 h, egg deposition after 7 days, read-out: efficacy (infertile eggs); for pest or weed control at 0.004 mg: 4 μg/animal
In short: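 Efficacy is the share of infertile eggs: 100% means none are fertile, 0% means all are fertile. Egg deposition was checked 7 days after injecting 1 μL of DMSO-diluted compound into the abdomen of five engorged female R. microplus, with doubtful eggs kept about 42 days to hatching. The stock was 10 mg in 0.5 mL DMSO.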

[10] = test system: adult unfed cat fleas (Ctenocephalides felis); assay: Ctenocephalides felis oral test; conditions: 48 h, 100 ppm in cattle blood, after 2 days
In short: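 Percent flea mortality recorded at 2 days. Compound was dissolved in dimethyl sulfoxide and diluted into cattle blood, which ~20 unfed adult cat fleas ingested through parafilm from a 37°C-heated chamber, their own chamber kept at room temperature.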

[11] = test system: adult brown dog ticks (Rhipicephalus sanguineus); assay: Rhipicephalus sanguineus in-vitro contact test with adult brown dog ticks; conditions: after 48 hours, read-out: efficacy (ticks dead or moribund); for pest or weed control at 1 µg/cm2, 100 g/ha: 1 μg/cm^2 (=100 g/ha); for pest or weed control at 5 µg/cm2, 500 g/ha: 5 μg/cm^2 (=500 g/ha)
In short: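 Efficacy is the percentage of adult ticks dead or moribund, meaning immotile or uncoordinated and unable to escape 45-50° C. heat within 5 min. Read 48 h after 5-10 ticks were enclosed at room temperature in acetone-coated glass tubes. Dose 5 μg/cm^2, from a 900 ppm coating solution.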

[12] = test system: brown planthopper (Nilaparvata lugens); assay: Nilaparvata lugens spray test; conditions: in Oryza sativa, 96 h
In short: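 Rice plants (Oryza sativa) sprayed with compound in acetone/DMF diluted in water containing 1000 ppm alkylarylpolyglycol ether emulsifier, then infested with planthoppers. Mortality % scored after 4 days (100% = all killed, 0% = none killed).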

[13] = test system: southern root-knot nematode (Meloidogyne incognita); assay: Meloidogyne incognita test; conditions: 336 h, after 14 days, read-out: nematicidal activity (gall formation)
Protocol: Solvent: 125.0 parts by weight of acetone
To produce a suitable preparation of active compound, 1 part by weight of active compound is mixed with the stated amount of solvent, and the concentrate is diluted with water to the desired concentration.
Vessels are filled with sand, a solution of the active ingredient, a suspension containing eggs and larvae of the southern root-knot nematode (Meloidogyne incognita) and salad seeds. The salad seeds germinate and the seedlings grow. Galls develop in the roots.
After 14 days the nematicidal activity is determined on the basis of the percentage of gall formation. 100% means no galls were found and 0% means the number of galls found on the roots of the treated plants was equal to that in untreated control plants.

SMILES | mortality at 100 g/ha [1] | pest or weed control at 32 µg/disc, 100 g/ha [2] | pest or weed control at 5 µg/cm2 [3] | mortality at 20 ppm [4] | mortality at 100 g/ha [5] | mortality at 4 ppm [6] | mortality at 100 g/ha [7] | pest or weed control at 5 µg/cm2 [8] | pest or weed control at 0.004 mg [9] | mortality at 100 ppm [10] | pest or weed control at 1 µg/cm2, 100 g/ha [11] | pest or weed control at 5 µg/cm2, 500 g/ha [11] | mortality at 500 g/ha [1] | mortality at 500 g/ha [12] | pest or weed control at 20 ppm [13] | pest or weed control at 160 µg/disc, 500 g/ha ([2]; 500 g/ha (=160 μg/well)) | mortality at 500 g/ha [5] | pest or weed control at 0.02 mg ([9]; 20 μg/animal)
CC(NC(=O)c1cc(OC(F)(F)F)cc(C2CC2)c1)c1nc(N)nn1-c1ncccn1 (stereo not drawn) [I-097] | 100% | 100% | 90% | 100% | 100% | 100% | 100% | 90% | 100% | 100% |  |  |  |  |  |  |  | 
CNc1nc(C(C)NC(=O)c2cc(Br)cc(OC(F)(F)F)c2)n(-c2ncccn2)n1 (stereo not drawn) [I-103] | 100% | 100% | 100% | 100% | 100% | 100% | 90% | 100% | 100% | 100% | 100% | 100% |  |  |  |  |  | 
C[C@H](NC(=O)c1cc(Cl)cc(C(C)(C)C#N)c1)c1nc(N)nn1-c1ccc(C#N)cn1 [I-155] |  | 100% | 100% | 100% | 100% |  | 100% | 100% |  |  | 100% | 100% | 100% | 100% |  |  |  | 
C[C@H](NC(=O)c1cc(Br)cc(OC(F)(F)F)c1)c1nc(N2CCOCC2)nn1-c1ncccn1 [I-147] |  | 100% |  |  |  |  |  | 100% |  |  |  |  |  |  | 100% |  |  | 
CC(NC(=O)c1cc(Cl)cc(OC(F)(F)F)c1)c1nc(-c2ncccn2)nn1-c1ncccn1 (stereo not drawn) [I-051] | 100% |  |  |  |  | 100% |  |  | 100% | 100% |  |  | 100% |  | 100% | 100% | 100% | 100%
CNc1nc([C@H](C)NC(=O)c2cc(Cl)cc(OC(F)(F)F)c2)n(-c2ncccn2)n1 [I-129] |  | 100% | 100% | 100% | 100% |  | 90% | 100% |  |  | 80% | 80% | 100% | 90% |  |  |  | 
CNc1nc(C(C)NC(=O)c2cc(Br)cc(C(F)(F)F)c2)n(-c2ncccn2)n1 (stereo not drawn) [I-092] | 100% | 100% | 100% | 80% | 100% | 100% | 90% | 100% | 100% | 100% | 100% | 100% |  |  |  |  |  | 
